Results as given in US20140242712A1, “FLUORESCENCE DETECTION OF POISON OAK OIL” (priority 1999, published 2014).

Key:
[1] = storage stability of the boronic acid on exposure to air; type: physicochemical; settings: without taking any precautions to avoid exposure to air
[2] = in protic solvent; cited from earlier work

SMILES: CCCCB(O)O [n-butyl boronic acid]
- stability of the sample on storage [1]: stable for over a year

SMILES: O=C(O)c1cc(O)c(O)c(O)c1 [gallic acid]
- rate constant k of reduction of nitroxide by phenols (hydrogen transfer) [2]: 0.003 M⁻¹ s⁻¹

SMILES: Cc1c(C)c2c(c(C)c1O)CCC(C)(C(=O)O)O2 (stereo not shown) [TROLOX]
- rate constant k of reduction of nitroxide by phenols (hydrogen transfer) [2]: 0.2 M⁻¹ s⁻¹

SMILES: Cc1cc(C(C)(C)C)c(O)c(C(C)(C)C)c1 [BHT]
- rate constant k of reduction of nitroxide by phenols (hydrogen transfer) [2]: 0.003 M⁻¹ s⁻¹
